For twelve compounds, TGI and GI50 results are on record in PubChem BioAssay (NCI).

Among the test systems are SN12C renal; SK-MEL-5 melanoma; HOP-92 NSCLC; NCI-H460 lung; M14 melanoma; SF-268 CNS; EKVX NSCLC; NCI-H226 lung; OVCAR-3 ovarian.
Common to all, as to assay: inhibition of tumour cell growth, NCI panel, 48 h

Each structure is given as a SMILES string.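 Where inhibition never reached the appropriate level, the endpoint shown equals the highest concentration tested. Otherwise, values were interpolated linearly from a five-concentration, 48-hour dose response in 96-well plates. At the GI50, growth is halved. TGI: concentration producing complete growth inhibition.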

`CCOc1ccccc1NC(=O)CC1SC(=Nc2ccc([N+](=O)[O-])cc2)NC1=O` (configuration not stated): the TGI in the assay with SN12C renal is 53.9 µM; with SK-MEL-5 melanoma, 30 µM; in the assay on HOP-92 NSCLC it was 25.8 µM; with NCI-H460 lung it was 51.1 µM; with M14 melanoma it was 50.9 µM; with SF-268 CNS, > 100 µM. Besides, the TGI was 72.3 µM in the assay on EKVX NSCLC, 41.8 µM in the assay with NCI-H226 lung and 31.6 µM with OVCAR-3 ovarian.

On to `O=C1NC(=O)C2C(=O)NC(=O)C1C2(c1ccccc1)c1cc[nH]c1` (configuration not stated), for which the TGI in the assay with SN12C renal, in the assay with SK-MEL-5 melanoma, in the assay with HOP-92 NSCLC, in the assay with NCI-H460 lung, in the assay with M14 melanoma and in the assay with SF-268 CNS was > 100 µM in each case. For the same compound, the TGI in the assay on EKVX NSCLC, in the assay with NCI-H226 lung and with OVCAR-3 ovarian was > 100 µM in each case.

For the compound `BrC1=CC=C2NC=CC3=CC=NC1C32` (configuration not stated), the TGI in the assay with SN12C renal was > 100 µM; in the assay with SK-MEL-5 melanoma it was 45.4 µM; in the assay with HOP-92 NSCLC, 71.2 µM; with NCI-H460 lung it was 17.9 µM; in the assay with M14 melanoma it was 56.2 µM; in the assay with SF-268 CNS, > 92.5 µM. Also, the values for the TGI with EKVX NSCLC, in the assay on NCI-H226 lung and in the assay with OVCAR-3 ovarian were > 96.3 µM, 45.9 µM and 80.6 µM, respectively.

On to `CC(=O)[CH-]C(=O)c1ccccc1.CC(=O)[CH-]C(=O)c1ccccc1.CC1(C)C2CCC1(C)C([O-])C2.CC1(C)C2CCC1(C)C([O-])C2.[Ti+4]`, for which the GI50 with SN12C renal is 27.9 µM; with SK-MEL-5 melanoma, 21.9 µM; in the assay on HOP-92 NSCLC it was 12.9 µM; in the assay with NCI-H460 lung, 47.7 µM; in the assay with M14 melanoma, 20.4 µM; with SF-268 CNS, 34.8 µM. In addition, the figures for the GI50 in the assay on EKVX NSCLC, with NCI-H226 lung and with OVCAR-3 ovarian were 69.6 µM, 23.2 µM and 59.3 µM, respectively. Besides, the TGI in the assay on SN12C renal is > 100 µM; with SK-MEL-5 melanoma, 39.1 µM; with HOP-92 NSCLC, 34.9 µM; in the assay on NCI-H460 lung, > 100 µM; in the assay with M14 melanoma, 44.1 µM; with SF-268 CNS it was > 100 µM. The TGI with EKVX NSCLC was > 100 µM; in the assay on NCI-H226 lung, 90.7 µM; with OVCAR-3 ovarian it was > 100 µM.

For the compound `Clc1cc(Cc2cc(Cl)c(Cl)c3c2OCOC3)c2c(c1Cl)COCO2`, the TGI was > 100 µM with SN12C renal; > 100 µM with SK-MEL-5 melanoma; 41.8 µM with HOP-92 NSCLC; > 100 µM with NCI-H460 lung; > 100 µM in the assay with M14 melanoma; > 100 µM in the assay on SF-268 CNS. Moreover, the values for the TGI in the assay with NCI-H226 lung and in the assay with OVCAR-3 ovarian were 72.9 µM and 69 µM, respectively.

Regarding `N#CC(C(=O)/C(=N/N)C(C#N)c1ccccc1)c1ccccc1` (configuration not stated), the TGI in the assay on SN12C renal, with SK-MEL-5 melanoma, in the assay with HOP-92 NSCLC, in the assay on NCI-H460 lung, in the assay on M14 melanoma and in the assay with SF-268 CNS was > 100 µM each time. Moreover, the TGI in the assay with EKVX NSCLC, with NCI-H226 lung and in the assay with OVCAR-3 ovarian was > 100 µM in each case.

Take `Oc1cc(O)c2c(-c3c(O)c(-c4ccc(O)c(O)c4)[o+]c4cc(O)cc(O)c34)c(O)c(-c3ccc(O)c(O)c3)[o+]c2c1`: the TGI in the assay with SN12C renal was > 100 µM; in the assay on SK-MEL-5 melanoma, > 100 µM; in the assay with HOP-92 NSCLC, > 100 µM; with NCI-H460 lung, 90.6 µM; in the assay with M14 melanoma it was > 100 µM; in the assay with SF-268 CNS, > 100 µM. In addition, the TGI in the assay on EKVX NSCLC worked out at 86.8 µM; in the assay on NCI-H226 lung it was 64 µM; in the assay on OVCAR-3 ovarian, 46.2 µM.

Regarding `CCC/C(=N/NC(=O)C(N)=O)C(CC)C(=O)CCC(=O)N(Cc1ccccc1)Cc1ccccc1` (configuration not stated), the TGI in the assay with SN12C renal, with SK-MEL-5 melanoma, in the assay with HOP-92 NSCLC, in the assay on NCI-H460 lung, with M14 melanoma and in the assay with SF-268 CNS was > 100 µM throughout. The TGI with EKVX NSCLC, in the assay on NCI-H226 lung and with OVCAR-3 ovarian was > 100 µM in each case.

On to `CC(=O)[CH-]C(=O)c1ccccc1.CC(=O)[CH-]C(=O)c1ccccc1.[Eu+3].[OH-].[OH3+]`, for which the GI50 is > 100 µM with SN12C renal; > 100 µM in the assay on SK-MEL-5 melanoma; 7.44 µM with HOP-92 NSCLC; > 100 µM with NCI-H460 lung; > 100 µM in the assay with M14 melanoma; > 100 µM with EKVX NSCLC. In addition, the TGI with SN12C renal was > 100 µM; in the assay with SK-MEL-5 melanoma, > 100 µM; in the assay on HOP-92 NSCLC it was 99.7 µM; with NCI-H460 lung, > 100 µM; in the assay with M14 melanoma, > 100 µM; in the assay on EKVX NSCLC, > 100 µM.

For the compound `CC(=O)[CH-]C(=O)c1ccccc1.CC(=O)[CH-]C(=O)c1ccccc1.CC(C)CCCC(C)[C@H]1CCC2[C@@H]3CC=C4C[C@@H]([O-])CC[C@]4(C)C3CC[C@@]21C.CC[O-].[Ti+4]` (some centres not stated), the GI50 with SN12C renal was 94.5 µM; in the assay on SK-MEL-5 melanoma, 35.2 µM; with HOP-92 NSCLC, 33.8 µM; in the assay on NCI-H460 lung, 44.8 µM; in the assay on M14 melanoma, 48.3 µM; in the assay with SF-268 CNS, 50.2 µM. Besides, the values for the GI50 in the assay on EKVX NSCLC, in the assay with NCI-H226 lung and with OVCAR-3 ovarian were 66.8 µM, > 100 µM and 49.7 µM, respectively. For the same compound, the TGI in the assay on SN12C renal is > 100 µM; in the assay with SK-MEL-5 melanoma, > 100 µM; with HOP-92 NSCLC, 94 µM; with NCI-H460 lung, > 100 µM; in the assay with M14 melanoma, > 100 µM; with SF-268 CNS, > 100 µM. For the same compound, the TGI in the assay on EKVX NSCLC, in the assay with NCI-H226 lung and in the assay with OVCAR-3 ovarian was > 100 µM in each case.

With `O=[N+]([O-])c1nccn1CC(O)CN1CC1` (configuration not stated), the TGI in the assay with SN12C renal, in the assay on SK-MEL-5 melanoma, in the assay on NCI-H460 lung, with M14 melanoma, in the assay with SF-268 CNS and in the assay on EKVX NSCLC was > 100 µM each time. Moreover, the TGI in the assay on NCI-H226 lung and in the assay on OVCAR-3 ovarian was > 100 µM in each case.

As for `CN(C)c1ccc([O][Bi]([Cl])[Cl])cc1`, the GI50 in the assay with SN12C renal was > 100 µM; with SK-MEL-5 melanoma, 29.6 µM; in the assay with NCI-H460 lung, > 100 µM; with M14 melanoma it was 87 µM; with EKVX NSCLC, > 100 µM; in the assay on NCI-H226 lung it was > 100 µM. Besides, the GI50 with OVCAR-3 ovarian was > 100 µM. Besides, the TGI with SN12C renal, in the assay on SK-MEL-5 melanoma, with NCI-H460 lung, with M14 melanoma, with EKVX NSCLC and in the assay on NCI-H226 lung was > 100 µM in each case. For the same compound, the TGI in the assay on OVCAR-3 ovarian is > 100 µM.
